Read-outs that look alike come from different tables or passages of the source.
Tests used:
[1] = system: RMA; type: biochemical, Candida maltosa IFO 1977 strain; details: for Relative activity (%) of RMA after treatment with inhibitor: inhibitor 1 mM, 30° C. for 30 minutes, untreated RMA = 100%; for inhibition of RMA (in words): treatment at 30° C. for 30 minutes, concentrations of Table 6
Procedure: In 1 mM concentration solution or mixture of various compounds, a polypeptide is treated at 30° C. for 30 minutes. […] Concentrations of agents at the time of treatment are illustrated in Table 6.

[2] = system: RMA
[3] = system: RMA; remark: listed apart in the source
Procedure: Progress of oxidization reaction may be easily evaluated by, at first, preparing a reaction mixture including 2.5 mMNAD^+, a 50 mM target alcohol compound, oxidation activity of which is to be evaluated, and a polypeptide of the present invention in 50 mM tris-HCl buffer (pH 9.0), then allowing the reaction mixture to react at 30° C. and finally observing increase of absorbance at the wavelength of 340 nm, which is accompanied by increase of NADH level. […] Rapid increasing rate of the absorbance reflects high ability of the polypeptide of the present invention to oxidize a target alcohol compound. The oxidizing ability of a polypeptide may be expressed in terms of numerical values. Thus, oxidizing activity 1 U is defined as an enzyme level that catalyzes generation of 1 μmol of NADH per minute.
Physicochemical properties of RMA as obtained in the above manner were studied. Each activity was determined in accordance with a method as described in [Method for evaluating oxidizing ability to an alcohol compound].

[4] = carbonyl compound 1.5 mM, NADH 0.25 mM, pH 6.5, 30° C., acetophenone = 100%

| Structure (SMILES) | Relative activity (%) (reducing activity) [2, 4] | other results |
| --- | --- | --- |
| CCN1C(=O)C=CC1=O [N-Ethylmaleimide] | – | Relative activity (%) of RMA after treatment with inhibitor [1]: 94.7% |
| CCOC(=O)C(Cl)C(C)=O (centres unmarked) [Ethyl 2-chloroacetoacetate] | 26 | – |
| O=Cc1ccccn1 [2-Pyridinecarbaldehyde] | 11 | – |
| CCC(C)=O [2-Butanone] | 54 | – |
| CCOC(=O)CC(=O)COCc1ccccc1 [Ethyl 4-benzyloxyacetoacetate] | 10 | – |
| CC(=O)c1cnccn1 [Acetypyrazine] | 76 | – |
| O=CCCCC=O [Glutaraldehyde] | 9 | – |
| CCCCCCCCOC(=O)CC(=O)CCl [n-Octyl 4-chloroacetoacetate] | 24 | – |
| COC(=O)C(C)=O [Methyl pyruvate] | 71 | – |
| CCOC(=O)C(C)=O [Ethyl pyruvate] | 87 | – |
| COC(=O)CC(C)=O [Methyl acetoacetate] | 66 | – |
| CC(=O)c1cccc([N+](=O)[O-])c1 [m-Nitroacetophenone] | 89 | – |
| CC(=O)c1ccccc1O [o-Hydroxyacetophenone] | 9 | – |
| COc1cccc(C(C)=O)c1 [m-Methoxyacetophenone] | 111 | – |
| CC(C)=O [Acetone] | 28 | – |
| CO [Methanol] | – | activity [3]: 0.6% |
| CCCC=O [n-Butyraldehyde] | 117 | – |
| CC(=O)c1ccncc1 [4-Acetylpyridine] | 83 | – |
| CCOC(=O)CC(=O)CN=[N+]=[N-] [Ethyl 4-azideacetoacetate] | 21 | – |
| O=Cc1ccncc1 [4-Pyridinecarbaldehyde] | 5 | – |
| CCOC(=O)CC(=O)CCl [Ethyl 4-chloroacetoacetate] | 52 | – |
| O=S(=O)([O-])[O-].[Cu+2] [CuSO4, copper sulfate] | – | Relative activity (%) of RMA after treatment with inhibitor [1]: 28.5%; inhibition of RMA (in words) [1]: inhibited |

| Structure (SMILES) | Relative activity (%) (reducing activity) [2, 4] | other results |
| --- | --- | --- |
| CCCCCCC(C)=O [2-Octanone] | 95 | – |
| C[C@H](O)CO [(S)-1,2-propandiol] | – | activity [3]: 0.7% |
| O=C(O)c1ccc(O)cc1 [p-Hydroxybenzoic acid] | – | Relative activity (%) of RMA after treatment with inhibitor [1]: 91.5% |
| CC(C=O)c1ccccc1 (centres unmarked) [2-Phenypropionaldehyde] | 37 | – |
| O=Cc1ccccc1[N+](=O)[O-] [o-Nitrobenzeldehyde] | 29 | – |
| CCCC(C)O (centres unmarked) [2-Pentanol] | – | activity [3]: 183% |
| CC(=O)c1ccccc1 [Acetophenone] | 100 | – |
| CCCCCCC(C)O (centres unmarked) [2-Octanol] | – | activity [3]: 134% |
| CC(=O)c1ccccn1 [2-Acetylpyridine] | 63 | – |
| C[C@H](O)CCO [(S)-1,3-Butandiol] | – | activity [3]: 9.5% |
| O=S(=O)([O-])[O-].[Zn+2] [ZnSO4, zinc sulfate] | – | Relative activity (%) of RMA after treatment with inhibitor [1]: 23.1%; inhibition of RMA (in words) [1]: inhibited |
| CC(=O)c1ccc(C)cc1 [p-Methylacetophenone] | 91 | – |
| c1cnc2c(c1)ccc1cccnc12 [o-Phenanthroline] | – | Relative activity (%) of RMA after treatment with inhibitor [1]: 0.0%; inhibition of RMA (in words) [1]: inhibited |
| COC(=O)CC(=O)CCl [Methyl 4-chloroacetoacetate] | 35 | – |
| CC(=O)CC(C)C [4-Methyl-2-pentanone] | 70 | – |
| CCCCCC=O [n-Hexylaldehyde] | 117 | – |
| O=C(CCl)c1cccc(Cl)c1 [2-Chloro-1-(3′-cholophenyl)ethanone] | – | Relative activity (%) (reducing activity) ([2]; pH 6.5): 20% |
| CC(=O)C(C)=O [diacethyl] | 24 | – |
| C[C@@H](O)CO [(R)-1,2-Propandiol] | – | activity [3]: 0.7% |
| CC(=O)CCc1ccccc1 [Benzylacetone] | 33 | – |
| CC(=O)CC(=O)OC(C)(C)C [tert-Butylacetoacetate] | 88 | – |
| CC(C)O [2-Propanol] | – | activity [3]: 66% |

| Structure (SMILES) | Relative activity (%) (reducing activity) [2, 4] | other results |
| --- | --- | --- |
| O=Cc1ccccc1 [Benzaldehyde] | 29 | – |
| C[C@H](O)c1ccccc1 [(S)-1-Phenylethanol] | – | activity [3]: 307% |
| O=Cc1ccc([N+](=O)[O-])cc1 [p-Nitrobenzaldehyde] | 27 | – |
| O=Cc1cccc([N+](=O)[O-])c1 [m-Nitrobenzaldehyde] | 28 | – |
| CC(=O)c1ccc(Cl)cc1 [p-Chloroacetohenone] | 130 | – |
| CC(=O)CC(N)=O [Acetoacetamide] | 10 | – |
| CC(=O)c1ccc(F)cc1 [p-Fluoroacetophenone] | 110 | – |
| O=C1CCCC1 [Cyclopentanone] | 10 | – |
| CCOC(=O)CC(C)=O [Ethyl 3-oxobutanoate] | 93 | – |
| CCC(O)CC [3-Pentanol] | – | activity [3]: 40% |
| CCC(O)C(=O)O (centres unmarked) [2-Hydroxybutyric acid] | – | activity [3]: 4.9% |
| CCC=O [Propionaldehyde] | 39 | – |
| CCCCCC(C)=O [2-Heptanone] | 82 | – |
| CC(O)CC(C)O (centres unmarked) [2,4-Pentandiol] | – | activity [3]: 34% |
| COc1ccccc1NC(=O)CC(C)=O [o-Acetoacetanisidide] | 35 | – |
| CC(=O)c1ccccc1Cl [o-Chloroacetophenone] | 2 | – |
| CCCCCC(=O)CC [3-Octanone] | 3 | – |
| OC1CCCCC1 [Cyclohexanol] | – | activity [3]: 30% |
| C[C@H](O)CN [(S)-1-Amino-2-propanol] | – | activity [3]: 2% |
| CC(=O)c1cccc(Cl)c1 [m-Chloroacetophenone] | 130 | – |
| O=C1CCSC1 [Tetrahydrothiophen-3-one] | 4 | – |
| C[C@@H](O)CCO [(R)-1,3-Butandiol] | – | activity [3]: 1.3% |

| Structure (SMILES) | Relative activity (%) (reducing activity) [2, 4] | other results |
| --- | --- | --- |
| CCCCC(C)=O [2-Hexanone] | 87 | – |
| CC(=O)CC(C)=O [Acethylacetone] | 19 | – |
| CCCC(=O)CC(=O)OCC [Ethyl 3-oxohexanate] | 2 | – |
| CC(=O)C(Cl)C(C)=O [3-Chloro-2,4-pentadione] | 43 | – |
| CC(=O)c1cccc(O)c1 [m-Hydroxyacetophenone] | 12 | – |
| CC(=O)c1ccco1 [2-Acetyrfuran] | 8 | – |
| [Cl][Hg][Cl] [HgCl2, mercury chloride] | – | Relative activity (%) of RMA after treatment with inhibitor [1]: 0.0%; inhibition of RMA (in words) [1]: inhibited |
| CC(=O)CC(=O)Nc1ccc(C)cc1 [N-Acetoacetyl-p-toluidine] | 2 | – |
| CC(=O)CC(=O)Nc1ccccc1 [Acetoacetoanilide] | 1 | – |
| CC(=O)CC(=O)OCc1ccccc1 [Benzyl acetoacetate] | 115 | – |
| CC(=O)CC(=O)Nc1cc(Cl)ccc1Cl [2′,5′-Dichloro acetoacetanilide] | 34 | – |
| CC(=O)CC(=O)Nc1ccc(Cl)cc1 [4′-Chroloacetoacetanilide] | 4 | – |
| CC(=O)c1cccnc1 [3-Acetylpyridine] | 19 | – |
| CCCCCCCCC(=O)C(=O)OC [Methyl 2-oxodecanate] | 2 | – |
| CCCC(C)=O [2-Pentanone] | 141 | – |
| COc1ccccc1C(C)=O [o-Methoxyacetophenone] | 10 | – |
| CC(=O)C(C)C [Methyl iso-propyl ketone] | 4 | – |
| O=S(=O)(F)Cc1ccccc1 [Phenylmethanesulfonyl fluoride] | – | Relative activity (%) of RMA after treatment with inhibitor [1]: 96.0% |
| O=CCCc1ccccc1 [3-Phenypropionaldehyde] | 112 | – |
| CC(=O)c1cc2ccoc2cn1 [5-Acetylfuro[2.3-c]pyridine] | 63 | – |
| C[C@@H](O)C[C@@H](C)O [(2R,4R)-2,4-Pentandiol] | – | activity [3]: 0.5% |
| CCOC(=O)c1ccc(C(C)=O)cc1 [Ethyl 4-acetylbenzoate] | 70 | – |
